Tests used:
[1] = system: subjects having a systolic BP≧160 mmHg or diastolic BP≧95 mmHg (elevated blood pressure); experiment: Example 1: blood pressure change in subjects with elevated blood pressure, none taking antihypertensive agents at baseline (two double-blind studies); type: in vivo, human
Method: A total of 103 subjects (9 in the placebo group, 26 in each the 2-[3-cyano-4-(2-methylpropoxy)phenyl]-4-methylthiazole-5-carboxylic acid (hereinafter referred to as “febuxostat”) 80 mg and 120 mg once daily (hereinafter referred to as “QD”) groups, 10 in the febuxostat 240 mg QD group and 32 in the 4-hydroxy-3,4-pyrazolopyrimidine (hereinafter referred to as “allopurinol”) 300/100 mg QD group), having a systolic BP≧160 mmHg or diastolic BP≧95 mmHg, and thus considered to have “elevated blood pressure”, were examined. Allopurinol […] xanthine oxidoreductase inhibitor.
None of the above subjects were taking any antihypertensive agents at the baseline (start) of the study. These […] subjects were part of two (2) double-blind (hereinafter referred to as “DB”) studies. One study was of 28 weeks in duration. During this time, the subjects received 80 mg, 120 mg or 240 mg QD of febuxostat, placebo or allopurinol 300 or 100 mg QD, depending on the subject's renal function. The second study was 52 weeks in duration. During this time, the subjects received 80 mg or 120 mg QD of febuxostat or allopurinol 300 mg QD.

[2] = system: oxonic acid (OA)-induced hyperuricemic model in Sprague-Dawley rats; experiment: Example 4: systolic blood pressure by tail cuff in conscious normal and OA-dosed rats; type: in vivo; settings: FIG. 2
Method: (§1) Materials and Methods. To produce hyperuricemia, rats received OA (Sigma, St Louis Mo., USA) 750 mg/kg body weight daily by gastric gavage. To investigate the treatment effect of febuxostat (also referred to herein as “Fx”), the drug was administered in drinking water at 50 mg/L (approximately 5-6 mg/kg/day) four weeks after OA dosing while the respective controls received 5.84 mg/L of NaCl in drinking water (to maintain a salt concentration equivalent to the Febuxostat-containing water). […] Body weight, food and water intakes were measured daily. Systolic blood pressure, obtained in conscious rats by a tail cuff sphygmomanometer, and plasma uric acid were measured in all animals at baseline and at the end of four and eight weeks. […]
(§2) Evaluation. Food and water intake were determined daily. Systolic blood pressure (hereinafter “SBP”) was measured in conscious animals by a tail cuff sphygmomanometer using an automated system (XBP-100, Kent Scientific Co, USA). […] Plasma UA, insulin and triglycerides were quantified using commercial kits (Diagnostic Chemicals Ltd, USA; Crystalchem, USA and Spinreact, Spain, respectively).
(§3) Statistical Analysis. Values were expressed as mean±standard error of the mean (hereinafter “SEM”). In the study, values from the respective four treatment groups were analyzed by one-way analysis of variance (hereinafter “ANOVA”). […]

[3] = system: oxonic acid (OA)-induced hyperuricemic model in Sprague-Dawley rats; experiment: Example 4: plasma uric acid in normal and OA-dosed rats; type: in vivo
Method: as §1, §2, §3

[4] = system: subjects having a systolic BP≧160 mmHg or diastolic BP≧95 mmHg (elevated blood pressure); experiment: Example 2: blood pressure change in subjects with elevated blood pressure, none taking angiotensin-converting enzyme inhibitors (two double-blind studies); type: in vivo, human
Method: None of these subjects were taking any angiotensin-coverting enzyme inhibitors, but might have been taking some other type of antihypertensive drug at the baseline (start) of the study. These 158 subjects were part of two (2) DB studies. One study was of 28 weeks in duration during which subjects received 80 mg, 120 mg or 240 mg QD of febuxostat or placebo or allopurinol 300 or 100 mg QD, depending on the subject's renal function. The second study was 52 weeks in duration during which subjects received 80 mg or 120 mg QD of febuxostat or allopurinol 300 mg QD. […] A total of 52 weeks of treatment was completed by 15 subjects in the febuxostat 80 mg QD group, 9 in the febuxostat 120 mg QD group and 17 in the allopurinol 300/100 mg QD group. Because of the shorter duration of one of the two DB studies, no subject in the placebo and febuxostat 240 mg QD groups was treated for 52 weeks.

[5] = 80 mg QD, after 4 weeks of treatment
[6] = 80 mg QD, after 28 weeks of treatment
[7] = 80 mg QD, after 52 weeks of treatment
[8] = 120 mg QD, after 4 weeks of treatment
[9] = 120 mg QD, after 28 weeks of treatment
[10] = 120 mg QD, after 52 weeks of treatment
[11] = 240 mg QD, after 4 weeks of treatment
[12] = 240 mg QD, after 28 weeks of treatment

Cc1nc(-c2ccc(OCC(C)C)c(C#N)c2)sc1C(=O)O [febuxostat, 2-[3-cyano-4-(2-methylpropoxy)phenyl]-4-methylthiazole-5-carboxylic acid]
mean change from baseline for diastolic BP [1, 5]: −3.7 mmHg | mean change from baseline for mean arterial BP [1, 5]: −5.2 mmHg | mean change from baseline for systolic BP [1, 5]: −8.2 mmHg | mean change from baseline for diastolic BP [1, 6]: −10.2 mmHg | mean change from baseline for mean arterial BP [1, 6]: −11.1 mmHg | mean change from baseline for systolic BP [1, 6]: −13.0 mmHg | mean change from baseline for diastolic BP [1, 7]: −12.3 mmHg | mean change from baseline for mean arterial BP [1, 7]: −12.7 mmHg | mean change from baseline for systolic BP [1, 7]: −13.4 mmHg | mean change from baseline for diastolic BP [1, 8]: −8.4 mmHg | mean change from baseline for mean arterial BP [1, 8]: −9.3 mmHg | mean change from baseline for systolic BP [1, 8]: −11.0 mmHg | mean change from baseline for diastolic BP [1, 9]: −6.4 mmHg | mean change from baseline for mean arterial BP [1, 9]: −9.0 mmHg | mean change from baseline for systolic BP [1, 9]: −14.2 mmHg | mean change from baseline for diastolic BP [1, 10]: −10.0 mmHg | mean change from baseline for mean arterial BP [1, 10]: −15.2 mmHg | mean change from baseline for systolic BP [1, 10]: −25.8 mmHg | mean change from baseline for diastolic BP [1, 11]: −8.9 mmHg | mean change from baseline for mean arterial BP [1, 11]: −9.3 mmHg | mean change from baseline for systolic BP [1, 11]: −10.0 mmHg | mean change from baseline for diastolic BP [1, 12]: −5.0 mmHg | mean change from baseline for mean arterial BP [1, 12]: −6.0 mmHg | mean change from baseline for systolic BP [1, 12]: −8.0 mmHg | systolic blood pressure by tail cuff (effect in words) ([2]; OA-dosed conscious rats): significant but partial decrease in systolic BP | systolic blood pressure by tail cuff (effect in words) ([2]; normal conscious rats): did not alter blood pressure in normal rats | plasma uric acid levels (effect in words) ([3]; OA-dosed rats, febuxostat added beginning at 4 weeks, FIG. 1): reduced the uric acid levels back into the normal range | uric acid levels relative to control ([3]; normal rats receiving febuxostat, difference not statistically significant): approximately 53 % of control values | mean change from baseline for diastolic BP [4, 5]: −4.7 mmHg | mean change from baseline for mean arterial BP [4, 5]: −5.5 mmHg | mean change from baseline for systolic BP [4, 5]: −7.2 mmHg | mean change from baseline for diastolic BP [4, 6]: −8.7 mmHg | mean change from baseline for mean arterial BP [4, 6]: −9.2 mmHg | mean change from baseline for systolic BP [4, 6]: −10.4 mmHg | mean change from baseline for diastolic BP [4, 7]: −8.1 mmHg | mean change from baseline for mean arterial BP [4, 7]: −8.5 mmHg | mean change from baseline for systolic BP [4, 7]: −9.5 mmHg | mean change from baseline for diastolic BP [4, 8]: −7.2 mmHg | mean change from baseline for mean arterial BP [4, 8]: −7.6 mmHg | mean change from baseline for systolic BP [4, 8]: −8.3 mmHg | mean change from baseline for diastolic BP [4, 9]: −7.5 mmHg | mean change from baseline for mean arterial BP [4, 9]: −8.7 mmHg | mean change from baseline for systolic BP [4, 9]: −11.0 mmHg | mean change from baseline for diastolic BP [4, 10]: −7.2 mmHg | mean change from baseline for mean arterial BP [4, 10]: −11.3 mmHg | mean change from baseline for systolic BP [4, 10]: −19.4 mmHg | mean change from baseline for diastolic BP [4, 11]: −9.3 mmHg | mean change from baseline for mean arterial BP [4, 11]: −12.5 mmHg | mean change from baseline for systolic BP [4, 11]: −18.9 mmHg | mean change from baseline for diastolic BP [4, 12]: −10.0 mmHg | mean change from baseline for mean arterial BP [4, 12]: −12.9 mmHg | mean change from baseline for systolic BP [4, 12]: −18.8 mmHg

— US20140329868A1, “METHODS FOR TREATING HYPERTENSION” (TAKEDA PHARMACEUTICALS U.S.A., INC., priority 2005, published 2014)
